According to article doi:10.1101/2021.05.03.442520v1 (biorxiv, 2021):

Biological target: TMPRSS2 (Homo sapiens, UniProt O15393)
Assay: fluorogenic pericellular protease assay, transfected Vero E6 cells
Format: cell-based
Conditions: Vero C1008, read-out: % inhibition at 10 nM

Sequence of TMPRSS2 (O15393 whole entry): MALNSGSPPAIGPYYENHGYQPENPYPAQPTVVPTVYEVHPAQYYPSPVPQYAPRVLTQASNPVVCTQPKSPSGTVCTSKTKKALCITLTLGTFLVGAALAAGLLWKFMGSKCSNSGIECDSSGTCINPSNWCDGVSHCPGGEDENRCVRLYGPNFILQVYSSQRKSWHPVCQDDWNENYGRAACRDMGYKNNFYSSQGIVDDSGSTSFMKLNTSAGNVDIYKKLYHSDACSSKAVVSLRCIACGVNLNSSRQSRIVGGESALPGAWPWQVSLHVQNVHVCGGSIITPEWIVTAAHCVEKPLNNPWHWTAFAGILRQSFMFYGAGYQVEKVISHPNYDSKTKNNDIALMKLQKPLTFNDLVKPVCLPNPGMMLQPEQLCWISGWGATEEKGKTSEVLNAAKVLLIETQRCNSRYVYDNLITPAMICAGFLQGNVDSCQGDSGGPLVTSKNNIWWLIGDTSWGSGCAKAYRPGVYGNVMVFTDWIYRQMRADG

Row | Structure (SMILES) | inhibition at 0.01 µM [%]
1 | N=C(N)NCCCCC(=O)N[C@@H](CCC(N)=O)C(=O)N[C@@H](CC1CCCCC1)C(=O)N[C@@H](CCCNC(=N)N)C(=O)c1nc2ccccc2s1 [N-0678] | 5
2 | N=C(N)NCCC[C@H](NC(=O)[C@H](Cc1ccccc1)NC(=O)[C@H](CCC(N)=O)NC(=N)N)C(=O)c1nc2ccccc2s1 [N-1296] | 16
